In patent US6271215A, “Sulfated oligosaccharides having anticoagulant/antithrombotic activity” (The Australian National University, priority 1997, dated 2001):

Key:
human plasma = test: Activated partial thromboplastin time (APTT) test, human plasma; format: biochemical; details: for Increase in Coagulation Time: increase in coagulation time (seconds) from a 1 μg/ml increase in concentration, linear regression, pooled plasma from 90 donors; for anticoagulant activity (in words): APTT test; for Relative Increase in Coagulation Time: Human plasma, vs untreated control; for Coagulation Time: PI-88 8.6 μg/ml
Excerpt: Heparin (anticoagulant activity 120 U/mg) is included for comparison. Data obtained with pooled plasma from 90 donors, the coagulation time of the plasma being 30.8 seconds in the absence of inhibitors. Results representative of four separate experiments. Table 1 summarises the anticoagulant activity of 19 sulfated oligosaccharides, as measured by the activated partial thromboplastin time (APTT) test. Similar results were obtained with the thrombin time test. […] Chain length, monosaccharide makeup and linkage, all appear to be critical factors. […] Furthermore, a striking feature of the maltose series is that chain elongation y a single residue from the maltotetraose to maltopentaose results in a 19-fold increase in anticoagulant activity. […] The glucose series of oligosaccharides emphasizes the importance of monosaccharide linkage on activity. […] There are additional, more subtle, effects of monosaccharide linkage on anticoagulant activity. […] Values | obtained from a linear regression analysis of the coagulation data. |^a Coagulation times estimated using the APTT test. Similar results | were obtained in duplicate assays. Concentrations of heparin and | mannopentaose phosphate SO4 (PI-88) were used which prolonged the |^a Coagulation times estimated by the APTT test. Data expressed as fold | increase in coagulation time induced by the anticoagulant compared with | untreated control.

marmoset plasma = test: APTT test, marmoset plasma; format: biochemical; details: for Relative Increase in Coagulation Time: APTT, Marmoset plasma, vs untreated control
Excerpt: (§1) Some additional biological properties of one of the sulfated oligosaccharides, PI-88, were defined. […] Protamine is frequently used clinically to reverse the anticoagulant effects of heparin and Fragmin. […] Finally, PI-88 was examined for its ability to act as an anticoagulant in a range of mammalian species. […] Thus, sulfated oligosaccharides potentially can be used as anticoagulants/antithrombotics not only in humans but in a wide range of mammalian species.
(§2) ^a Coagulation times estimated by the APTT test. Data expressed as fold
(§3) increase in coagulation time induced by the anticoagulant compared with […]

sheep plasma = test: APTT test, sheep plasma; format: biochemical; details: for Relative Increase in Coagulation Time: APTT, Sheep plasma, vs untreated control
Excerpt: as §1, §2, §3

rabbit plasma = test: APTT test, rabbit plasma; format: biochemical; details: for Relative Increase in Coagulation Time: APTT, Rabbit plasma, vs untreated control
Excerpt: as §1, §2, §3

dog plasma = test: APTT test, dog plasma; format: biochemical; details: for Relative Increase in Coagulation Time: APTT, Dog plasma, vs untreated control
Excerpt: as §1, §2, §3

rat plasma = test: APTT test, rat plasma; format: biochemical; details: for Relative Increase in Coagulation Time: APTT, Rat plasma, vs untreated control
Excerpt: as §1, §2, §3

mouse plasma = test: APTT test, mouse plasma; format: biochemical; details: for Relative Increase in Coagulation Time: APTT, Mouse plasma, vs untreated control
Excerpt: as §1, §2, §3

Human platelet = test: Collagen- or ADP-induced platelet aggregation (platelet aggregometer); format: cell-based; details: for Relative Rate of Platelet Aggregation, ADP-induced Aggregation: ADP 10 μM, control without PI-88 81 ± 1; for Relative Rate of Platelet Aggregation, ADP-induced Aggregation / Relative Rate of Platelet Aggregation, Collagen-induced Aggregation: ± SD; for Relative Rate of Platelet Aggregation, Collagen-induced Aggregation: collagen 9 μg/ml, control without PI-88 114 ± 8
Experimental: ^a Human platelet aggregation induced by either collagen (9 μg/ml)
or ADP (10 μM) and relative rates of platelet aggregation estimated, in
the presence or absence of PI-88, using a platelet aggregometer. Data ±
SD representative of two platelet donors.

thrombin = test: Anti-thrombin III mediated anti-thrombin activity, chromogenic assays; format: biochemical
Excerpt: (§4) The manner by which the sulfated oligosaccharides inhibit the coagulation cascade was then investigated.

factor Xa = test: Anti-thrombin III mediated anti-factor Xa activity, chromogenic (Helena) anti-Xa assay; format: biochemical; details: FIG. 3
Experimental: Factor Xa activity was determined with the chromogenic (Helena) anti-Xa assay run on a Roche COBAS Fara biochemistry analyser.
as §4

heparin cofactor II = test: Plasma free system: purified heparin cofactor II, thrombin and chromogenic thrombin substrate; format: biochemical; details: data not shown
Excerpt: as §4

[1] = Inactivation of anticoagulant activity by protamine; format: biochemical
Excerpt: as §1

Cellohexaose SO4
Increase in Coagulation Time (human plasma; APTT): 4.8 s/µg

Laminarihexaose SO4
Increase in Coagulation Time (human plasma; APTT): 0.9 s/µg

Mannopentaose phosphate SO4 (PI-88)
Increase in Coagulation Time (human plasma; APTT): 5.04 s/µg

Maltoheptaose SO4
anticoagulant activity (in words) (human plasma): quite effective anticoagulants | Increase in Coagulation Time (human plasma; APTT): 5.9 s/µg

Chitosan hexamer SO4
anticoagulant activity (in words) (human plasma): negligible anticoagulant activity | Increase in Coagulation Time (human plasma; APTT): 0.4 s/µg

Cellotetraose SO4
anticoagulant activity (in words) (human plasma): reasonably potent anticoagulant | Increase in Coagulation Time (human plasma; APTT): 4.2 s/µg

Maltotriose SO4
Increase in Coagulation Time (human plasma; APTT): 0.25 s/µg

Mannopentaose phosphate SO2 (PI-88)
Increase in Coagulation Time (human plasma; APTT): 5.67 s/µg

O=S(=O)(O)OC[C@H]1O[C@@](COS(=O)(=O)O)(O[C@H]2O[C@H](COS(=O)(=O)O)[C@@H](OS(=O)(=O)O)[C@H](OS(=O)(=O)O)[C@H]2OS(=O)(=O)O)[C@@H](OS(=O)(=O)O)[C@@H]1OS(=O)(=O)O [Sucrose SO4]
Increase in Coagulation Time (human plasma; APTT): 0.39 s/µg

Isomaltohexaose SO4
Increase in Coagulation Time (human plasma; APTT): 6.56 s/µg

Maltopentaose SO4
anticoagulant activity (in words) (human plasma): quite effective anticoagulants | Increase in Coagulation Time (human plasma; APTT): 5.25 s/µg | increase in anticoagulant activity on chain elongation from maltotetraose to maltopentaose (human plasma; APTT, relative to the maltotetraose sulfate): 19 fold

Maltose SO4
Increase in Coagulation Time (human plasma; APTT): 0.31 s/µg

Maltoetraose SO4
Increase in Coagulation Time (human plasma; APTT): 0.28 s/µg

Isomaltopentaose SO4
anticoagulant activity (in words) (human plasma): substantially less effective anticoagulant | Increase in Coagulation Time (human plasma; APTT): 1.85 s/µg

mannopentaose phosphate sulfate [PI-88]
Relative Increase in Coagulation Time (human plasma; APTT, PI-88 2.24 μg/ml): 1.42 fold | Relative Increase in Coagulation Time (human plasma; APTT, PI-88 22.4 μg/ml): 4.65 fold | Coagulation Time (human plasma; APTT, Mean ± SD of 20 normal donors): 88.3 ± 11.9 s | Coagulation Time (human plasma; APTT, Normal Donor 1): 77.3 s | Coagulation Time (human plasma; APTT, Normal Donor 2): 89.6 s | Coagulation Time (human plasma; APTT, Normal Donor 3): 94.0 s | Coagulation Time (human plasma; APTT, Normal Donor 4): 85.6 s | Coagulation Time (human plasma; APTT, Normal Donor 5): 101.9 s | Coagulation Time (human plasma; APTT, Normal Donor 6): 95.0 s | Coagulation Time (human plasma; APTT, Normal Donor 7): 115.3 s | Coagulation Time (human plasma; APTT, Normal Donor 8): 101.9 s | Coagulation Time (human plasma; APTT, Normal Donor 9): 85.2 s | Coagulation Time (human plasma; APTT, Normal Donor 10): 78.0 s | Coagulation Time (human plasma; APTT, Normal Donor 11): 93.6 s | Coagulation Time (human plasma; APTT, Normal Donor 12): 82.9 s | Coagulation Time (human plasma; APTT, Normal Donor 13): 85.5 s | Coagulation Time (human plasma; APTT, Normal Donor 14): 89.7 s | Coagulation Time (human plasma; APTT, Normal Donor 15): 81.2 s | Coagulation Time (human plasma; APTT, Normal Donor 16): 72.6 s | Coagulation Time (human plasma; APTT, Normal Donor 17): 108.0 s | Coagulation Time (human plasma; APTT, Normal Donor 18): 70.4 s | Coagulation Time (human plasma; APTT, Normal Donor 19): 93.6 s | Coagulation Time (human plasma; APTT, Normal Donor 20): 72.6 s | ability to act as an anticoagulant (in words) (human plasma; human plasma): effective anticoagulant | Relative Increase in Coagulation Time (marmoset plasma; PI-88 2.24 μg/ml): 1.40 fold | Relative Increase in Coagulation Time (marmoset plasma; PI-88 22.4 μg/ml): 2.86 fold | ability to act as an anticoagulant (in words) (marmoset plasma; marmoset plasma): effective anticoagulant | Relative Increase in Coagulation Time (sheep plasma; PI-88 2.24 μg/ml): 1.88 fold | Relative Increase in Coagulation Time (sheep plasma; PI-88 22.4 μg/ml): > 4.98 fold | ability to act as an anticoagulant (in words) (sheep plasma; sheep plasma): effective anticoagulant | Relative Increase in Coagulation Time (rabbit plasma; PI-88 2.24 μg/ml): 1.02 fold | Relative Increase in Coagulation Time (rabbit plasma; PI-88 22.4 μg/ml): 1.20 fold | ability to act as an anticoagulant (in words) (rabbit plasma; rabbit plasma): only weakly active | Relative Increase in Coagulation Time (dog plasma; PI-88 2.24 μg/ml): 1.24 fold | Relative Increase in Coagulation Time (dog plasma; PI-88 22.4 μg/ml): 2.42 fold | ability to act as an anticoagulant (in words) (dog plasma; dog plasma): effective anticoagulant | Relative Increase in Coagulation Time (rat plasma; PI-88 2.24 μg/ml): 1.54 fold | Relative Increase in Coagulation Time (rat plasma; PI-88 22.4 μg/ml): > 5.88 fold | ability to act as an anticoagulant (in words) (rat plasma; rat plasma): effective anticoagulant | Relative Increase in Coagulation Time (mouse plasma; PI-88 2.24 μg/ml): 1.13 fold | Relative Increase in Coagulation Time (mouse plasma; PI-88 22.4 μg/ml): 3.03 fold | ability to act as an anticoagulant (in words) (mouse plasma; mouse plasma): effective anticoagulant | inhibition of collagen- and ADP-induced platelet aggregation (in words) (Human platelet): very weak inhibitor | Relative Rate of Platelet Aggregation, ADP-induced Aggregation (Human platelet; PI-88 21 μg/ml): 74 ± 1 | Relative Rate of Platelet Aggregation, ADP-induced Aggregation (Human platelet; PI-88 210 μg/ml): 72 ± 1 | Relative Rate of Platelet Aggregation, ADP-induced Aggregation (Human platelet; PI-88 2100 μg/ml): 56 ± 2 | Relative Rate of Platelet Aggregation, Collagen-induced Aggregation (Human platelet; PI-88 21 μg/ml): 97 ± 8 | Relative Rate of Platelet Aggregation, Collagen-induced Aggregation (Human platelet; PI-88 210 μg/ml): 86 ± 10 | Relative Rate of Platelet Aggregation, Collagen-induced Aggregation (Human platelet; PI-88 2100 μg/ml): 79 ± 0 | enhancement of the ability of anti-thrombin III to inhibit thrombin (in words) (thrombin; initial studies): did not enhance | fold less active than heparin in enhancing anti-thrombin III mediated anti-thrombin activity (thrombin; two different chromogenic assays, data not shown): 700-7000 fold | fold less active than heparin or LMW heparin (Fragmin), anti-thrombin III mediated factor Xa inhibitory activity (factor Xa): 100-1000 fold | enhancement of the ability of heparin cofactor II to inhibit thrombin (in words) (heparin cofactor II): as effectively as heparin and dermatan sulfate | inactivation of the anticoagulant activity by protamine (in words) [1]: effectively inactivate

Cellopentaose SO4
Increase in Coagulation Time (human plasma; APTT): 3.5 s/µg

Mannopentaose SO4
Increase in Coagulation Time (human plasma; APTT): 5.32 s/µg

Maltohexaose SO4
anticoagulant activity (in words) (human plasma): quite effective anticoagulants | Increase in Coagulation Time (human plasma; APTT): 5.85 s/µg

Laminariheptaose SO4
Increase in Coagulation Time (human plasma; APTT): 0.5 s/µg

Laminaritetraose SO4
Increase in Coagulation Time (human plasma; APTT): 2.9 s/µg
